This is an account of results in patent US10711029B2, “Beta-d-2′-deoxy-2′-alpha-fluoro-2′-beta-c-substituted-4′fluoro-n6-substituted-6-amino-2-substituted purine nucleotides for the treatment of hepatitis c virus infection” (Atea Pharmaceuticals, Inc., priority 2016, dated 2020).

For data set [1], the target named is HCV RNA-dependent RNA polymerase (Hepatitis C virus genotype 1a, UniProt P27958). The note with it: Ivanov et al., Russian J. Bioorg. Chem. 2010; cited from earlier work.
A short description of data set [2]: Cytotoxicity in the replicon cells (staining with STT). The format is cell-based. The following applies: human, Huh-7 luc/neo ET cells, read-out: HCV Replicon CC50. As to the method:
(§1) Huh-7 luc/neo ET cells bearing a discistronic HCV genotype 1b luciferase reporter replicon were plated at 7.5×10^3 cells/mi in duplicate 96-well plates for the parallel determination of antiviral efficacy (EC50) and cytotoxicity (TC50). The plates were cultured for 24 hours prior to the addition of compounds. Six serial one half log dilutions of the test articles (high test concentration of 100.0 μM. or high test concentration of 1.0 μM) and human interferon-alpha2b (high test 10.0 U/ml) were prepared in cell culture medium and added to the cultured cells in triplicate wells for each dilution. Six wells in the test plates received medium alone as an untreated control. Following 72 hours of culture in the presence of compound, one of the plates was used for the determination of cytotoxicity by staining with STT and the other for antiviral efficacy by determination of luciferase reporter activity. Cytotoxicity and efficacy data were collected and imported into a customized Excel workbook for determination of the TC50 and EC50 values.

For data set [3], the system named is HCV genotype 1b luciferase reporter replicon. Briefly: HCV replicon assay, antiviral efficacy by luciferase reporter activity. The format is cell-based. Here is the method:
as §1
(Replicon systems follow genome replication, usually without infectious particles.)

The next data set has as its system Huh-7 luc/neo ET cells. Briefly: Cytotoxicity in the replicon cells (staining with STT). The format is cell-based. The following applies: 72 hours, read-out: HCV Replicon CC50. As to the method: as §1
The target in the next data set is T1, adenosine deaminase (Homo sapiens, UniProt P00813).
T1 sequence (P00813 1-363): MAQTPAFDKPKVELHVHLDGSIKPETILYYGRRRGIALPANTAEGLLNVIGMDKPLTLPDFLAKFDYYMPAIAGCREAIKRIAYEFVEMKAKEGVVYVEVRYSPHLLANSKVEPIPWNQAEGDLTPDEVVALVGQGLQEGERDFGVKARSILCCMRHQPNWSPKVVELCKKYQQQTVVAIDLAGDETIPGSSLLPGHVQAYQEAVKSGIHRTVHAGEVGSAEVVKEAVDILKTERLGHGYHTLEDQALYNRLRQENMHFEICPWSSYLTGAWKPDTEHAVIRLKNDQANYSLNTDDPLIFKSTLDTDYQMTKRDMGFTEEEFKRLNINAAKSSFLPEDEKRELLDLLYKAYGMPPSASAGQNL
The note with it: over a long period (120 minutes); WO 2010/091386; cited from earlier work.

Where only a bound is given, the exact number is not on record here.

Usually CC50 stands for the concentration that lowers cell viability or growth by half.

HCV RNA-dependent RNA polymerase, sequence (P27958 2421-3011): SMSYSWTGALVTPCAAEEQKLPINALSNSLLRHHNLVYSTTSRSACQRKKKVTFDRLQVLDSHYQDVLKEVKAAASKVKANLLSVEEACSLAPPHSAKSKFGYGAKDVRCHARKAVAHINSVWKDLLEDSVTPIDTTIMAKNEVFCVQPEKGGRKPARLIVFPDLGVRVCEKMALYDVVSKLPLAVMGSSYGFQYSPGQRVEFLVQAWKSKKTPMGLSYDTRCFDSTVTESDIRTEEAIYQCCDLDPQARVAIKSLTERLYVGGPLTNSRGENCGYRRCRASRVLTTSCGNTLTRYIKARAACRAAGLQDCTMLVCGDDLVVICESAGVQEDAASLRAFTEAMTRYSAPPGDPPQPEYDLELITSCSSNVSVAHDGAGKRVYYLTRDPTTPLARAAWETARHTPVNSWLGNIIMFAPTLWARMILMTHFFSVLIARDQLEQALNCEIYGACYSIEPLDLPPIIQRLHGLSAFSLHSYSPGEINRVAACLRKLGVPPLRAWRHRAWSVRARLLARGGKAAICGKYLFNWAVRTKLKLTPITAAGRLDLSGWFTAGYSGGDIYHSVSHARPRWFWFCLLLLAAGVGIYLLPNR

`O=c1ccn([C@@H]2O[C@](F)(COP(=O)(O)OP(=O)(O)OP(=O)(O)O)[C@@H](O)[C@H]2O)c(=O)[nH]1` [4′fluorouridine 5′-O-triphosphate]: the “inhibition of HCV RNA-dependent RNA polymerase” value in data set [1] was “effective inhibitor”.
On to `CN(C)c1nc(N)nc2c1ncn2[C@@H]1O[C@](F)(CO)C(O)[C@@]1(C)F` (stereo partly drawn) [Cmpd 1], for which the CC50 at 72 h in data set [2] is more than 100 µM.
On to `CC(C)OC(=O)[C@H](C)NP(=O)(OC[C@@]1(F)O[C@@H](n2cnc3c(N(C)C)nc(N)nc32)[C@](C)(F)C1O)Oc1ccccc1` (stereo partly drawn) [Cmpd 2], for which the “Fold increase in activity compared to parent nucleoside” value (from here on “Fold increase in activity”) in data set [3] is reported as 2,941. For the same compound, the CC50 at 72 h in data set [2] is more than 10 µM.
For the compound `CN(c1nc(N)nc2c1ncn2[C@@H]1O[C@](F)(CO)C(O)[C@@]1(C)F)C1CC1` (stereo partly drawn) [Cmpd 3], the CC50 at 72 h in data set [2] is more than 100 µM.
On to `CC(C)OC(=O)[C@H](C)NP(=O)(OC[C@@]1(F)O[C@@H](n2cnc3c(N(C)C4CC4)nc(N)nc32)[C@](C)(F)C1O)Oc1ccccc1` (stereo partly drawn) [Cmpd 4], for which the “Fold increase in activity” value in data set [3] is reported as 667. Besides, in the data set on Huh-7 luc/neo ET cells, the CC50 was more than 10 µM.
As for `CNc1nc(N)nc2c1ncn2[C@@H]1O[C@](F)(CO)C(O)[C@@]1(C)F` (stereo partly drawn) [Cmpd 5], the CC50 at 72 h in data set [2] is more than 100 µM.
For the compound `CNc1nc(N)nc2c1ncn2[C@@H]1O[C@](F)(COP(=O)(N[C@@H](C)C(=O)OC(C)C)Oc2ccccc2)C(O)[C@@]1(C)F` (stereo partly drawn) [Cmpd 6], in data set [3], the “Fold increase in activity” value is on record as 10,000. In data set [2], the CC50 at 72 h is more than 10 µM.
`CC(C)OC(=O)[C@H](C)N[P@](=O)(OC[C@@]1(F)O[C@@H](n2cnc3c(N(C)C)nc(F)nc32)[C@](C)(F)[C@@H]1O)Oc1ccccc1` [Cmpd 8]: in data set [3], the “Fold increase in activity” value was 2521. In addition, the CC50 at 72 h in data set [2] was 35.3 µM.
For `CNc1nc(F)nc2c1ncn2[C@@H]1O[C@](F)(CO[P@@](=O)(N[C@@H](C)C(=O)OC(C)C)Oc2ccccc2)[C@@H](O)[C@@]1(C)F` [Cmpd 10], in that order: 4.7 and 54 µM.
Turning to `C[C@@]1(F)C(O)[C@@](F)(CO)O[C@H]1n1cnc2c(N3CCCC3)nc(N)nc21` (stereo partly drawn) [Cmpd 11], in data set [2], the CC50 at 72 h was more than 100 µM.
As to `CC(C)OC(=O)[C@H](C)NP(=O)(OC[C@@]1(F)O[C@@H](n2cnc3c(N4CCCC4)nc(N)nc32)[C@](C)(F)C1O)Oc1ccccc1` (stereo partly drawn) [Cmpd 12], the “Fold increase in activity” value in data set [3] is given as more than 31.3. Besides, in data set [2], the CC50 at 72 h was more than 10 µM.
In the case of `CCN(C)c1nc(N)nc2c1ncn2[C@@H]1O[C@](F)(CO)C(O)[C@@]1(C)F` (stereo partly drawn) [Cmpd 13], the CC50 at 72 h in data set [2] is more than 100 µM.
For the compound `CCN(C)c1nc(N)nc2c1ncn2[C@@H]1O[C@](F)(COP(=O)(N[C@@H](C)C(=O)OC(C)C)Oc2ccccc2)C(O)[C@@]1(C)F` (stereo partly drawn) [Cmpd 14], the “Fold increase in activity” value in data set [3] is recorded as 434. Moreover, the CC50 at 72 h in data set [2] was more than 10 µM.
Take `CC(C)OC(=O)[C@H](C)NP(=O)(OC[C@@]1(F)O[C@@H](n2cnc3c(N(C)C4CC4)nc(N)nc32)[C@](C)(F)C1O)Oc1ccccc1` (stereo partly drawn) [Cmpd 15]: the “Fold increase in activity” value in data set [3] was determined as 3332. Besides, the CC50 in the data set with Huh-7 luc/neo ET cells is more than 50 µM.
Consider `CC(C)OC(=O)[C@H](C)N[P@](=O)(OC[C@@]1(F)O[C@@H](n2cnc3c(N(C)C)nc(N)nc32)[C@](C)(F)C1O)Oc1ccccc1` (stereo partly drawn) [Cmpd 16], for which, in data set [3], the “Fold increase in activity” value stood at 40. Besides, the CC50 at 72 h in data set [2] was more than 50 µM.
For `CNc1nc(F)nc2c1ncn2[C@@H]1O[C@](F)(CO[P@@](=O)(N[C@@H](C)C(=O)OC(C)C)Oc2ccccc2)C(O)[C@@]1(C)F` (stereo partly drawn) [Cmpd 17], in that order: 4.3 and more than 50 µM.
Take `CN(C)c1nc(N)nc2[nH]cnc12` [N^6-dimethyl-2,6-diaminopurine]: the “deamination by adenosine deaminase” value at adenosine deaminase is on record as “not substantially deaminated”.
